Measurements taken from patent publication US20080280837A1, “Biologically Active Compounds with Anti-Angiogenic Properties” (priority 2004, published 2008).
Like-named read-outs stand apart in the source and are kept apart here.

Key:
[1] = Human hepatocyte microsomal degradation half-life; assay type: in vitro ADME
Protocol: the final concentration of ACN in the microsomal incubation was 1%,
samples were incubated in a water bath at 37° C., and
45 μL aliquots were taken over 2 hr, quenched with ACN, placed on ice for 30 min to precipitate proteins and assayed by LC/MS/MS using either the Quattro Ultima Pt, LCT or Q-T of instruments.

Jurkat cell line = assay: Cell proliferation assay (CellTiter 96 AQueous One) as indicator of toxicity, Jurkat; assay type: cell-based; conditions: 100 μM
Protocol: A simple cell proliferation assay was used to determine the in vitro cytotoxicity of “compound 1.” Selected cell lines were cultured according to their specific requirements. The optimal cell density required for each cell line was determined. All compounds were tested at a single concentration in triplicate. Cell viability was determined using the CellTiter 96® AQueous One reagent from Promega Corporation.
Assays are performed by adding the test compound to the cells in culture and incubating the cells for a fixed period. The number of viable cells remaining after the incubation period is determined by adding a small amount of the CellTiter 96® AQueous One Solution Reagent directly to culture wells, incubating for 1-4 hours and then recording absorbance at 490 nm with a 96 well plate reader.
Controls in the assay include untreated cells, wells without cells and cells treated with know cytotoxic agents. Data is presented as % inhibition of cell proliferation.

SSTR-1 = target: T1, SSTR-1 (Homo sapiens, UniProt P30872); assay: Radioligand binding screen against somatostatin subtype SSTR-1; conditions: concentration required to displace 50% of the competitive radioligand; read-out: IC50 SSTR1
T1 construct: expressed in transfected cells
Protocol: Receptor membrane preparations containing the desired cloned receptor (for example cloned human somatostatin receptor subtype 5, SSTR5) and radio-labeled ligand (for example 3-[^125I]iodotyrosyl^11 Somatostatin-14)) were diluted at the concentration required for testing and according to the specific parameters associated with the selected receptor-ligand combination, including receptor Bmax, ligand Kd and any other parameters necessary to optimize the experimental conditions. When tested for competition activity to the reference ligand, “compound 1” was mixed with membrane suspension and the radiolabeled reference ligand (with or without an excess of cold ligand to the receptor for determination of non-specific binding) and incubated at the temperature required by internal standard operating procedures. Following incubation, the binding reaction was stopped by the addition of ice-cold washing buffer and filtered on appropriate filters, which are then counted. Data analysis and curve-fitting was performed with XLfit (IDBS).
10 mM solutions of test compounds in 100% DMSO were prepared. ˜160 μl was used for each dilution (20 μl/well in triplicate).
A 1.25 mM assay stock was prepared by making a 1:8 dilution of the 10 mM solution. (To 30 μL of the 10 mM solution was added 210 μL milli-Q H2O. A 1:5 dilution series in milli-Q H2O was then prepared.
In primary screening experiments compounds were tested in duplicate for a particular concentration.

[2] = In vivo pharmacokinetic evaluation after i.v. and p.o. administration to rats; design: species or system rat; conditions: for clearance: read-out: Cltotal (total plasma clearance); for Vd: read-out: VdB (volume of distribution during the elimination phase); for bioavailability: calculated using AUC0-480, read-out: BA (oral bioavailability)
Protocol: Intravenous infusion of “compound 1” (2 mg/Kg) over 5 minutes to two rats and arterial blood sampled up to 24 hours.
Oral administration of “compound 1” (25 mg/Kg as HPMC suspension) via oral gavage to two rats and arterial blood sampled up to 24 hours.
Plasma concentrations of “compound 1” determined by MS (LOQ<0.01 μM)
CLtotal=total plasma clearance after IV administration Vdβ=volume of distribution during the elimination phase after IV administration BA=oral bioavailability AUCIV=area under the plasma concentration versus time profile from time zero to infinity after IV administration AUCoral=area under the plasma concentration versus time profile from time zero to infinity after oral administration β=terminal elimination rate constant after IV administration

[3] = Solubility of salts of compound 1; assay type: physicochemical; conditions: Water, overnight; listed as Free Base (Compound 1)
[4] = tested on: Human Umbilical Vein Endothelial Cells (HUVEC); assay: Endothelial cell proliferation assay (MTS); assay type: cell-based; conditions: 48 hrs
Protocol: Human Umbilical Vein Endothelial Cells (HUVEC from Clonetics) were plated in 96 well plates at 1000 cell per well in EGM-2 medium (Clonetics). Cells were grown overnight at 37° C. in 5% CO2. Fresh EGM-2 medium containing compound at the desired concentration was added to the wells and the cells allowed to grow for a further 48 hrs. A MTS (Promega) colorimetric assay was performed after 48 hrs to determine cell growth according to the manufacturers instructions. Results are presented in terms of percentage growth.

[5] = predicted from human microsomal degradation
[6] = rat, plasma, iv, 2 mg/Kg, IV, Mean ± SD of two rats
[7] = rat, plasma, iv, 2 mg/Kg, Rat 1, IV
[8] = rat, plasma, iv, 2 mg/Kg, Rat 2, IV

T1 sequence (P30872 whole entry, species assumed): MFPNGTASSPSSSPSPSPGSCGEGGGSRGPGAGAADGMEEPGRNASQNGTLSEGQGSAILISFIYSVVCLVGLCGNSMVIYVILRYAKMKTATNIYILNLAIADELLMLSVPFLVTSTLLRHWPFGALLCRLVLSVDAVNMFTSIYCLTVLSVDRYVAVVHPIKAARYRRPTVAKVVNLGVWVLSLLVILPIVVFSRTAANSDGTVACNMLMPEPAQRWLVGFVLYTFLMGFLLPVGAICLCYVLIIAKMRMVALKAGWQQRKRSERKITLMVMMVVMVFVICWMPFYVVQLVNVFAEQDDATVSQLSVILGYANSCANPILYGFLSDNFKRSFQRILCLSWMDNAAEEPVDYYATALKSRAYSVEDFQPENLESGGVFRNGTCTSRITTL

In the case of COC[C@H]1O[C@H](OCCc2ccccc2)[C@H](NC(=O)CCCN)[C@@H](OCc2ccc3ccccc3c2)[C@@H]1O [Compound 1], the CLint scaled ([1]; human hepatocyte microsomes, pH 7.4, predicted from human microsomal degradation) is reported as 62.2 mL/min/kg, the half-life ([1]; human hepatocyte microsomes, human microsomal incubation, 37° C., pH 7.4, read-out: Degradation t1/2) is reported as 32.2 min and the “Predicted CLblood” value [1, 5] is reported as 15.5 mL/min/kg. For the same compound, the “Predicted EH” value [1, 5] was 0.75, the “Inhibition of cell proliferation” value (Jurkat cell line) was “no inhibitory effect” and the IC50 (SSTR-1) was over 12.5 µM. The “VdB (volume of distribution during the elimination phase)” value ([2]; IV, Mean ± SD of two rats) was 3.29 ± 0.56 L/kg, the Tmax ([2]; Rat 4, PO 25 mg/Kg) was 20 min and the Tmax ([2]; plasma, Rat 3, PO 25 mg/Kg, read-out: Tmax (converted)) was 20 min. For the same compound, the Tmax ([2]; rat, plasma, 25 mg/Kg, PO, mean of two rats, read-out: Tmax (converted)) was 20 min, the clearance [2, 6] was 8.2 mL/min/kg and the Vd [2, 6] was 3.3 L/kg. It also gave a half-life ([2]; rat, plasma, iv, 2 mg/Kg, IV, Mean ± SD of two rats, read-out: t1/2 (elimination half-life) (converted)) of about 276 min, a Cmax ([2]; rat, plasma, iv, 2 mg/Kg, Mean ± SD of two rats) of 31.9 ± 2.27 µM and a Cmax ([2]; rat, plasma, iv, 2 mg/Kg, Rat 1, IV infusion 2 mg/Kg over 5 minutes) of 30.3 µM. For the same compound, the clearance [2, 7] was 7.53 mL/min/kg, the Vd [2, 7] was 2.9 L/kg and the half-life ([2]; rat, plasma, iv, 2 mg/Kg, Rat 1, IV, read-out: t1/2 (converted)) was 267 min. The Cmax ([2]; rat, plasma, iv, 2 mg/Kg, Rat 2, IV infusion 2 mg/Kg over 5 minutes) was 33.5 µM, the clearance [2, 8] was 8.86 mL/min/kg and the Vd [2, 8] was 3.69 L/kg. The half-life ([2]; rat, plasma, iv, 2 mg/Kg, Rat 2, IV, read-out: t1/2 (converted)) was 286 min, the Cmax ([2]; rat, plasma, po, 25 mg/Kg, Mean ± SD of two rats) was 4.95 ± 2.84 µM and the bioavailability ([2]; rat, plasma, po, 25 mg/Kg, PO, Mean ± SD of two rats) was about 5.2%. It also gave a bioavailability ([2]; rat, plasma, po, 25 mg/Kg, Rat 4, PO) of 5.38%, a Cmax ([2]; rat, plasma, po, 25 mg/kg, Rat 3, PO 25 mg/Kg HPMC suspension) of 6.95 µM and a Cmax ([2]; rat, plasma, po, 25 mg/kg, Rat 4, PO 25 mg/Kg HPMC suspension) of 2.94 µM. The “Solubility in Water” value [3] was over 200 µg/mL, the Percent cell growth at 125 µM ([4]; 125 uM) was 69% and the Percent cell growth at 250 µM ([4]; 250 uM) was 17%.
